Assays:
[1] = Plasma protein binding, mouse plasma; format: in vitro ADME
Method: Compound stability in mouse and human plasma and in mouse brain homogenate were conducted, [45]. Specifically, Mal-gluc or DHCA was incubated in duplicate with plasma at 37 °C and samples were taken at various time points and mixed with three volumes of ice-cold Stop Solution (methanol containing propranolol, diclofenac, or other internal standard). Samples were centrifuged to remove precipitated protein, and the supernatants were analyzed by LC/MS/MS to quantitate for remaining test compound. Data are converted to percentage remaining by dividing by the time zero concentration value. Data are fit to a first-order decay model to determine half-life. Plasma protein binding were conducted using both mouse and human plasma.

[2] = tested on: enzymes involved in de novo methylation and demethylation; assay: Expression of de novo methylation/demethylation enzymes in MSN-enriched primary culture; format: cell-based, mouse; conditions: MSN-enriched primary cultures
Excerpt: Stress-induced reduction of Rac1 expression is associated with a repressed chromatin state surrounding the promoter region of Rac1 in the NAc[11]. Since Mal-gluc can cross the BBB, we hypothesized that Mal-gluc may promote Rac1 expression, in part, by modulating chromatin acetylation. We first assessed the effect of Mal-gluc on HDACs that play key roles in chromatin deacetylation. […] Using site directed quantitative chromatin immunoprecipitation (qCHIP), we examined the permissive histone H3 acetylation (AcH3) in Mal-gluc treated MSN-enriched primary cultures.
Total RNA from MSN-enriched cultures or brain NAc was isolated using the RNeasy Mini Kit (Qiagen, Valencia, CA, USA) and reverse transcribed. Gene expression was measured in four replicates by quantitative RT-PCR using Maxima SYBR Green master mix (Fermentas) in ABI Prism 7900HT. Primer sequences are listed in Supplementary Table 2. Mouse hypoxanthine phosphoribosyltransferase (HPRT) expression level was used as an internal control. Data were normalized using the 2^-ΔΔCt method. Levels of target gene mRNAs were expressed relative to those in control cultures or mice and plotted in GraphPad Prism.

Rac1 = assay: In vivo dose finding: Rac1 mRNA in the NAc; set-up: species or system mouse; conditions: 50 ng to 5 mg/kg-BW/day in drinking water, 2 weeks; strongest at 500 ng and 5 µg/kg-BW/day
Method: We then initiated dose response and safety studies in mice to determine testing dosages and safety of DHCA and Mal-gluc. C57BL/6 mice were treated with either DHCA (doses ranging from 50 µg to 50 mg/kg-BW/day) or Mal-gluc (doses ranging from 50 ng to 5 mg/kg-BW/day) for 2 weeks to simulate long-term administration. Mice treated with DHCA were challenged with intraperitoneal (i.p.) injection of 0.4 mg/kg-BW LPS and plasma levels of IL-6 were measured 6 h post injection. […] Following common discovery-stage practices, we measured the plasma levels of alkaline phosphatase (ALP), aspartate aminotransferase (AST), and alanine aminotransferase (ALT) for liver function and blood urea nitrogen (BUN) for renal function.
Male C57BL/6 J mice (8-week-old) were placed on a polyphenol-free AIN-93M diet and treated with various doses of DHCA (vehicle, 50 µg, 500 µg, 5 mg, and 50 mg/kg-BW/day), delivered through their drinking water for two weeks. […]
Total RNA from MSN-enriched cultures or brain NAc was isolated using the RNeasy Mini Kit (Qiagen, Valencia, CA, USA) and reverse transcribed. Gene expression was measured in four replicates by quantitative RT-PCR using Maxima SYBR Green master mix (Fermentas) in ABI Prism 7900HT. […]

[3] = tested on: CpG-rich sequences of mouse IL-6 promoter and introns 1, 3; assay: CpG-free luciferase reporter with IL-6 promoter/intron CpG-rich segments in N2a cells; format: cell-based; conditions: 24 h
Method: To investigate how DHCA may attenuate IL-6 generation, we tested the effect of DHCA on Toll-like receptor-4 mediated signaling pathways. PBMCs were pretreated with DHCA and stimulated with LPS using the same protocol as during screening. Samples were taken at 0, 30 min, 60 min, 6 h and 16 h following LPS stimulation and cell lysates were subjected to a multiplex ELISA assay. […] Based on evidence that DNA methylation at a single CpG in the human IL-6 promoter region effectively alters IL-6 expression, we next tested whether DHCA can modulate IL-6 gene expression through methylation mechanisms. We treated PBMC cells with DHCA and measured the expression of enzymes essential for DNA methylation/demethylation. […] To investigate how methylation influences IL-6 gene expression, we employed the CpG-free luciferase reporter system. We cloned a ~280 bp CpG rich DNA segment from the mouse IL-6 promoter into a promoterless CpG-free reporter construct and transfected into N2a cells. We found the CpG-rich IL-6 promoter segment presented no inherent promoter activity as reflected by no differences in luciferase activity compared to the control construct (Fig. 2f). […] We then cloned CpG rich DNA segments from IL-6 introns 1, 3 or 4 into the CpG-free luciferase reporter construct with a minimal EF1 promoter and no enhancer activity. […] In contrast, the CpG-rich region of IL-6 intron 4 presented no observable enhancer activity (Fig. 2g). […] To test whether DHCA may influence the expression of other pro-inflammatory factors, we measured the level of secreted cytokines following LPS stimulation (Supplementary Fig. 3).
CpG-rich motif from mouse IL-6 promoter and intron 1, intron 3, and intron 4 were cloned into basic (no promoter or enhancer) or promoter (minimal EF1 promoter with no enhancer) pCpG-free Lucia plasmid (InvivoGen) using In-Fusion Cloning Kit (Clontech Laboratories). Plasmids were prepared in E. coli GT115 cells and expressed in N2A neuoblastoma cells using lipofectamine 2000 (ThermoFisher) according to manufacturer’s instruction. Following overnight recovery, cells were subjected to 5 µM of methylation inhibitor 5-Aza-2′-deoxycytidine (AZA-DC) or DHCA treatment. Twenty-four hours later, 10 µl of medium was incubated with 50 µl of QUANTI-Luc luciferase substrate for luciferase activity assessment.

[4] = tested on: pro-inflammatory cytokines; assay: Secreted cytokines of PBMCs following LPS stimulation (multiplex); format: cell-based, mouse
Method: To investigate how DHCA may attenuate IL-6 generation, we tested the effect of DHCA on Toll-like receptor-4 mediated signaling pathways. PBMCs were pretreated with DHCA and stimulated with LPS using the same protocol as during screening. Samples were taken at 0, 30 min, 60 min, 6 h and 16 h following LPS stimulation and cell lysates were subjected to a multiplex ELISA assay. […] Based on evidence that DNA methylation at a single CpG in the human IL-6 promoter region effectively alters IL-6 expression, we next tested whether DHCA can modulate IL-6 gene expression through methylation mechanisms. We treated PBMC cells with DHCA and measured the expression of enzymes essential for DNA methylation/demethylation. […] To investigate how methylation influences IL-6 gene expression, we employed the CpG-free luciferase reporter system. We cloned a ~280 bp CpG rich DNA segment from the mouse IL-6 promoter into a promoterless CpG-free reporter construct and transfected into N2a cells. We found the CpG-rich IL-6 promoter segment presented no inherent promoter activity as reflected by no differences in luciferase activity compared to the control construct (Fig. 2f). […] To test whether DHCA may influence the expression of other pro-inflammatory factors, we measured the level of secreted cytokines following LPS stimulation (Supplementary Fig. 3). […]

Row | Structure (SMILES) | Plasma protein binding, Mean fraction unbound (mouse plasma) [1] | expression of enzymes of de novo methylation and demethylation [2] | Rac1 mRNA in the NAc (Rac1) | luciferase (enhancer) activity, IL-6 intron 1 [3] | luciferase (enhancer) activity, IL-6 intron 3 [3] | cytokine expression profile ([4]; PBMCs in the absence of LPS stimulation) | LPS-induced production of cytokines (GM-CSF, IL-1β, IL-12 p40 and p70, IL-17, MCP-1) ([4]; PBMCs with LPS stimulation)
1 | COc1cc(-c2[o+]c3cc(O)cc(O)c3cc2O[C@@H]2O[C@H](CO)[C@@H](O)[C@H](O)[C@H]2O)cc(OC)c1O [Mal-gluc] | 55.70% | did not affect | dose-response increase of Rac1 expression |  |  |  | 
2 | O=C(O)CCc1ccc(O)c(O)c1 [DHCA, 3(3,4-dihydroxy-phenyl) propionic acid] |  |  |  | partially attenuated | totally abolished | did not influence cytokine expression profile | significantly reduced LPS-induced production of cytokines

Source: paper PMC5797143, “Epigenetic modulation of inflammation and synaptic plasticity promotes resilience against stress in mice” (Nature Communications, 2018)
